These results are taken from patent US8362013B2, “Salt of ABT-263 and solid-state forms thereof” (AbbVie Inc., priority 2009, dated 2013).

Data set [1] in a line: stability in an oxidative environment. The format is physicochemical.
In the next data set the test system is lymphoid malignancies. The note with it: cited from earlier work.
Data set [2] has as its system pro-apoptotic effects of other chemotherapeutic agents. Conditions: cited from earlier work.
The test system of data set [3] is small-cell lung cancer (SCLC). The note with it: cited from earlier work.

As for `CC1(C)CCC(c2ccc(Cl)cc2)=C(CN2CCN(c3ccc(C(=O)NS(=O)(=O)c4ccc(N[C@H](CCN5CCOCC5)CSc5ccccc5)c(S(=O)(=O)C(F)(F)F)c4)cc3)CC2)C1` [ABT-263], the “degradation in an oxidative environment” value in data set [1] was “susceptible to degradation”.

For the compound `CN(C)CC[C@H](CSc1ccccc1)Nc1ccc(S(=O)(=O)NC(=O)c2ccc(N3CCN(Cc4ccccc4-c4ccc(Cl)cc4)CC3)cc2)cc1[N+](=O)[O-]` [ABT-737, N-(4-(4-((4′-chloro-(1,1′-biphenyl)-2-yl)methyl)piperazin-1-yl)benzoyl)-4-(((1R)-3-(dimethylamino)-1-((phenylsulfanyl)methyl)propyl)amino)-3-nitrobenzene-sulfonamide], the single-agent activity entry (in the data set with lymphoid malignancies; in data set [3]) was “single-agent activity” throughout. In addition, the “potentiation of pro-apoptotic effects of other chemotherapeutic agents” value in data set [2] is “potentiates”.
